ChEMBL document CHEMBL5055633, “Amphipathic Barbiturates as Mimics of Antimicrobial Peptides and the Marine Natural Products Eusynstyelamides with Activity against Multi-resistant Clinical Isolates” (J Med Chem, 2021)

Assays:
Escherichia coli [1] = test: Antimicrobial activity against oxacillinase-producing Escherichia coli 50579417 assessed as reduction in bacterial growth incubated for 48 hrs by microdilution method; format: functional
[2] = Hemolytic activity in human erythrocytes incubated for 1 hr by microplate reader; format: functional, cell-based; settings: erythrocyte
Escherichia coli [3] = test: Antimicrobial activity against imipenem-type carbapenemase-26 producing Escherichia coli 50857972 assessed as reduction in bacterial growth incubated for 48 hrs by microdilution method; format: functional
HepG2 = test: Cytotoxicity against human HepG2 cells assessed as reduction in cell viability incubated for 24 hrs by colorimetric tetrazolium assay; format: functional, cell-based; settings: HepG2, 24 h
Staphylococcus aureus [4] = test: Antimicrobial activity against Staphylococcus aureus ATCC 9144 assessed as reduction in bacterial growth incubated for 48 hrs by microdilution susceptibility test; format: functional
[5] = Antimicrobial activity against New Delhi metallo-beta lactamase-1 Klebsiella pneumoniae K66-45 assessed as reduction in bacterial growth incubated for 48 hrs by microdilution method; format: functional
Escherichia coli [6] = test: Antimicrobial activity against Escherichia coli ATCC 25922 assessed as reduction in bacterial growth incubated for 48 hrs by microdilution susceptibility test; format: functional
Enterococcus faecium [7] = test: Antimicrobial activity against extended spectrum-lactamase-carbapenemas producing Enterococcus faecium strain 50673722 assessed as reduction in bacterial growth incubated for 48 hrs by microdilution method; format: functional
Pseudomonas aeruginosa [8] = test: Antimicrobial activity against Pseudomonas aeruginosa PAO1 assessed as reduction in bacterial growth incubated for 48 hrs by microdilution susceptibility test; format: functional
Escherichia coli [9] = test: Antimicrobial activity against verona integron-encoded metallo-beta-lactamase-29-producing Escherichia coli 50639799 assessed as reduction in bacterial growth incubated for 48 hrs by microdilution method; format: functional
Enterococcus faecium [10] = test: Antimicrobial activity against extended spectrum-lactamase-carbapenemas producing Enterococcus faecium strain TUH.50-22 assessed as reduction in bacterial growth incubated for 48 hrs by microdilution method; format: functional
Acinetobacter baumannii [11] = test: Antimicrobial activity against oxacillinase-23 producing Acinetobacter baumannii K44-35 assessed as reduction in bacterial growth incubated for 48 hrs by microdilution method; format: functional
Acinetobacter baumannii [12] = test: Antimicrobial activity against oxacillinase-23 producing Acinetobacter baumannii K47-42 assessed as reduction in bacterial growth incubated for 48 hrs by microdilution method; format: functional
Acinetobacter baumannii [13] = test: Antimicrobial activity against oxacillinase-24 producing Acinetobacter baumannii K55-13 assessed as reduction in bacterial growth incubated for 48 hrs by microdilution method; format: functional
Staphylococcus aureus [14] = test: Antimicrobial activity against extended spectrum-lactamase-carbapenemas producing Staphylococcus aureus strain 85/2082 assessed as reduction in bacterial growth incubated for 48 hrs by microdilution method; format: functional
Acinetobacter baumannii [15] = test: Antimicrobial activity against oxacillinase-23 producing Acinetobacter baumannii K63-58 assessed as reduction in bacterial growth incubated for 48 hrs by microdilution method; format: functional
MRC5 = test: Cytotoxicity against human MRC5 cells assessed as reduction in cell viability incubated for 24 hrs by colorimetric tetrazolium assay; format: functional, cell-based; settings: MRC5, 24 h
Pseudomonas aeruginosa [16] = test: Antimicrobial activity against New Delhi metallo-beta lactamase-1 producing Pseudomonas aeruginosa 50692172 assessed as reduction in bacterial growth incubated for 48 hrs by microdilution method; format: functional
Enterococcus faecium [17] = test: Antimicrobial activity against extended spectrum-lactamase-carbapenemas producing Enterococcus faecium strain 50758899 assessed as reduction in bacterial growth incubated for 48 hrs by microdilution method; format: functional
Acinetobacter baumannii [18] = test: Antimicrobial activity against oxacillinase-58 producing Acinetobacter baumannii K12-21 assessed as reduction in bacterial growth incubated for 48 hrs by microdilution method; format: functional
Pseudomonas aeruginosa [19] = test: Antimicrobial activity against verona integron-encoded metallo-beta-lactamase producing Pseudomonas aeruginosa 50692520 assessed as reduction in bacterial growth incubated for 48 hrs by microdilution method; format: functional
[20] = Antimicrobial activity against oxacillinase-245 producing Klebsiella pneumoniae 50625602 assessed as reduction in bacterial growth incubated for 48 hrs by microdilution method; format: functional
[21] = system: Corynebacterium glutamicum; test: Antimicrobial activity against Corynebacterium glutamicum ATCC 13032 assessed as reduction in bacterial growth incubated for 48 hrs by microdilution susceptibility test; format: functional
Staphylococcus aureus [22] = test: Antimicrobial activity against extended spectrum-lactamase-carbapenemas producing Staphylococcus aureus strain IHT 99040 assessed as reduction in bacterial growth incubated for 48 hrs by microdilution method; format: functional
Pseudomonas aeruginosa [23] = test: Antimicrobial activity against verona integron-encoded metallo-beta-lactamase-2 producing Pseudomonas aeruginosa K34-7 assessed as reduction in bacterial growth incubated for 48 hrs by microdilution method; format: functional
Staphylococcus aureus [24] = test: Antimicrobial activity against extended spectrum-lactamase-carbapenemas producing Staphylococcus aureus N315 assessed as reduction in bacterial growth incubated for 48 hrs by microdilution method; format: functional
Enterococcus faecium [25] = test: Antimicrobial activity against extended spectrum-lactamase-carbapenemas producing Enterococcus faecium strain 50901530 assessed as reduction in bacterial growth incubated for 48 hrs by microdilution method; format: functional
Escherichia coli [26] = test: Antimicrobial activity against New Delhi metallo-beta lactamase-1 producing Escherichia coli 50739822 assessed as reduction in bacterial growth incubated for 48 hrs by microdilution method; format: functional
Pseudomonas aeruginosa [27] = test: Antimicrobial activity against verona integron-encoded metallo-beta-lactamase-4 producing Pseudomonas aeruginosa K34-73 assessed as reduction in bacterial growth incubated for 48 hrs by microdilution method; format: functional
Escherichia coli [28] = test: Antimicrobial activity against New Delhi metallo-beta lactamase-1 producing Escherichia coli 50676002 assessed as reduction in bacterial growth incubated for 48 hrs by microdilution method; format: functional
[29] = Antimicrobial activity against carbapenemase producing Klebsiella pneumoniae K47-25 assessed as reduction in bacterial growth incubated for 48 hrs by microdilution method; format: functional
Staphylococcus aureus [30] = test: Antimicrobial activity against extended spectrum-lactamase-carbapenemas producing Staphylococcus aureus strain WIS assessed as reduction in bacterial growth incubated for 48 hrs by microdilution method; format: functional
Staphylococcus aureus [31] = test: Antimicrobial activity against extended spectrum-lactamase-carbapenemas producing Staphylococcus aureus NCTC 10442 assessed as reduction in bacterial growth incubated for 48 hrs by microdilution method; format: functional
Enterococcus faecium [32] = test: Antimicrobial activity against extended spectrum-lactamase-carbapenemas producing Enterococcus faecium strain K36-18 assessed as reduction in bacterial growth incubated for 48 hrs by microdilution method; format: functional
[33] = Antimicrobial activity against verona integron-encoded metallo-beta-lactamase -1 producing Klebsiella pneumoniae 50667959 assessed as reduction in bacterial growth incubated for 48 hrs by microdilution method; format: functional
Pseudomonas aeruginosa [34] = test: Antimicrobial activity against imipenem-type carbapenemase-14 producing Pseudomonas aeruginosa K44-24 assessed as reduction in bacterial growth incubated for 48 hrs by microdilution method; format: functional
[35] = Antimicrobial activity against New Delhi metallo-beta lactamase-1 and oxacillinase -181 producing Klebsiella pneumoniae 50531633 assessed as reduction in bacterial growth incubated for 48 hrs by microdilution method; format: functional

SMILES | MIC (Escherichia coli [1]) [µg/mL] | EC50 [2] [µg/mL] | MIC (Escherichia coli [3]) [µg/mL] | IC50 (HepG2) [µg/mL] | MIC (Staphylococcus aureus [4]) [µg/mL] | MIC [5] [µg/mL] | MIC (Escherichia coli [6]) [µg/mL] | MIC (Enterococcus faecium [7]) [µg/mL] | MIC (Pseudomonas aeruginosa [8]) [µg/mL] | MIC (Escherichia coli [9]) [µg/mL] | MIC (Enterococcus faecium [10]) [µg/mL] | MIC (Acinetobacter baumannii [11]) [µg/mL] | MIC (Acinetobacter baumannii [12]) [µg/mL] | MIC (Acinetobacter baumannii [13]) [µg/mL] | MIC (Staphylococcus aureus [14]) [µg/mL] | MIC (Acinetobacter baumannii [15]) [µg/mL] | IC50 (MRC5) [µg/mL] | MIC (Pseudomonas aeruginosa [16]) [µg/mL] | MIC (Enterococcus faecium [17]) [µg/mL] | MIC (Acinetobacter baumannii [18]) [µg/mL] | further results
NCCCCN1C(=O)N(CCCCN)C(=O)C(Cc2ccc3ccccc3c2)(Cc2ccc3ccccc3c2)C1=O.O=C(O)C(F)(F)F.O=C(O)C(F)(F)F | 16 | 250 | 16 | 7 | 8 | > 32 | 16 | 16 | 16 | 16 | 8 | 32 | 32 | 32 | 8 | 16 | 2 | 32 | 16 | 32 | MIC (Pseudomonas aeruginosa [19]): 32 µg/mL; MIC [20]: > 32 µg/mL; MIC [21]: 1 µg/mL; MIC (Staphylococcus aureus [22]): 8 µg/mL; MIC (Pseudomonas aeruginosa [23]): 32 µg/mL; MIC (Staphylococcus aureus [24]): 8 µg/mL; MIC (Enterococcus faecium [25]): 8 µg/mL; MIC (Escherichia coli [26]): 16 µg/mL; MIC (Pseudomonas aeruginosa [27]): 32 µg/mL; MIC (Escherichia coli [28]): 16 µg/mL; MIC [29]: > 32 µg/mL; MIC (Staphylococcus aureus [30]): 8 µg/mL; MIC (Staphylococcus aureus [31]): 8 µg/mL; MIC (Enterococcus faecium [32]): 16 µg/mL; MIC [33]: > 32 µg/mL; MIC (Pseudomonas aeruginosa [34]): > 32 µg/mL; MIC [35]: 32 µg/mL
N=C(N)NCCCCN1C(=O)N(CCCCNC(=N)N)C(=O)C(Cc2ccc(Br)c(Cl)c2)(Cc2ccc(Br)c(Cl)c2)C1=O.O=C(O)C(F)(F)F.O=C(O)C(F)(F)F | 4 | 77 | 4 | 15 | 0.5 | 8 | 2 | 4 | 8 | 4 | 2 | 8 | 8 | 8 | 2 | 8 | 36 | 32 | 4 | 8 | MIC (Pseudomonas aeruginosa [19]): 16 µg/mL; MIC [20]: 4 µg/mL; MIC [21]: 0.25 µg/mL; MIC (Staphylococcus aureus [22]): 2 µg/mL; MIC (Pseudomonas aeruginosa [23]): 16 µg/mL; MIC (Staphylococcus aureus [24]): 2 µg/mL; MIC (Enterococcus faecium [25]): 2 µg/mL; MIC (Escherichia coli [26]): 4 µg/mL; MIC (Pseudomonas aeruginosa [27]): 8 µg/mL; MIC (Escherichia coli [28]): 4 µg/mL; MIC [29]: 4 µg/mL; MIC (Staphylococcus aureus [30]): 2 µg/mL; MIC (Staphylococcus aureus [31]): 4 µg/mL; MIC (Enterococcus faecium [32]): 4 µg/mL; MIC [33]: 8 µg/mL; MIC (Pseudomonas aeruginosa [34]): 16 µg/mL; MIC [35]: 4 µg/mL
N=C(N)NCCCCN1C(=O)N(CCCCNC(=N)N)C(=O)C(Cc2ccc(C(F)(F)F)cc2)(Cc2ccc(C(F)(F)F)cc2)C1=O.O=C(O)C(F)(F)F.O=C(O)C(F)(F)F | 32 | > 449 | 16 | 104 | 2 | > 32 | 8 | 32 | 64 | 16 | 32 | > 32 | > 32 | > 32 | 4 | > 32 | 74 | > 32 | > 32 | > 32 | MIC (Pseudomonas aeruginosa [19]): > 32 µg/mL; MIC [20]: > 32 µg/mL; MIC [21]: 0.25 µg/mL; MIC (Staphylococcus aureus [22]): 8 µg/mL; MIC (Pseudomonas aeruginosa [23]): > 32 µg/mL; MIC (Staphylococcus aureus [24]): 4 µg/mL; MIC (Enterococcus faecium [25]): 8 µg/mL; MIC (Escherichia coli [26]): 32 µg/mL; MIC (Pseudomonas aeruginosa [27]): > 32 µg/mL; MIC (Escherichia coli [28]): 32 µg/mL; MIC [29]: > 32 µg/mL; MIC (Staphylococcus aureus [30]): 4 µg/mL; MIC (Staphylococcus aureus [31]): 4 µg/mL; MIC (Enterococcus faecium [32]): 32 µg/mL; MIC [33]: > 32 µg/mL; MIC (Pseudomonas aeruginosa [34]): > 32 µg/mL; MIC [35]: > 32 µg/mL
